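96-well plates; 48 h exposure; 5 concentrations. Endpoints by linear interpolation between flanking doses. Not reached: highest tested concentration assigned. Abbreviation: GI50, concentration required for 50% inhibition of growth.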 The source made the active and inactive calls. Rule as the data show it: active = GI50 up to about 1.1 µM and inactive = higher. Where a SMILES comes first, the peptide text is derived from it.
Assays:
Assay in all cases: NCI anticancer screen, dose series, 48 h
[1] = system: 786-0
[2] = system: KM12
[3] = system: M14
[4] = system: NCI-H226
[5] = system: NCI-H23
[6] = system: NCI-H460
[7] = system: OVCAR-4
[8] = system: OVCAR-8
[9] = system: PC-3
[10] = system: SF-268
[11] = system: SF-295
[12] = system: SK-MEL-28
[13] = system: SK-MEL-5
[14] = system: TK-10
[15] = system: UACC-257
[16] = system: A498
[17] = system: MDA-N
[18] = system: OVCAR-5
[19] = system: RPMI-8226

Measured: GI50

O=C1/C(=N\NC(=S)Nc2ccc(Cl)cc2)c2cc([N+](=O)[O-])ccc2N1CN1CCOCC1
inactive: [1] 4.41 µM | [2] 11.7 µM | [3] 10.1 µM | [4] 4.81 µM | [5] 2.08 µM | [6] 7.78 µM | [7] 10 µM | [8] 5.6 µM | [9] 10.2 µM | [10] 4.39 µM | [11] 4.97 µM | [12] 10.9 µM | [13] 4 µM | [14] 12.2 µM | [15] 13.2 µM

CNC(=O)CNC(=O)C(NC(=O)CNC(=O)C1CCCN1C(=O)C(C)NC(=O)C(NC(C)=O)C(C)C)C(C)C (stereo unspecified) (Ac-VAPGVG-NHMe; configuration not given here)
inactive: [1] > 100 µM | [16] > 100 µM | [3] > 100 µM | [17] > 100 µM | [5] > 100 µM | [6] > 100 µM | [7] > 100 µM | [18] > 100 µM | [8] > 100 µM | [9] > 100 µM | [19] > 100 µM | [10] > 100 µM | [11] > 100 µM | [12] > 100 µM | [14] > 100 µM | [15] > 100 µM

OCC1OC(NO)C(O)C(O)C1O (stereo unspecified)
inactive: [1] > 100 µM | [16] > 100 µM | [2] > 100 µM | [3] > 100 µM | [4] > 100 µM | [5] > 100 µM | [6] > 100 µM | [7] > 100 µM | [18] > 100 µM | [8] > 100 µM | [19] > 100 µM | [10] > 100 µM | [11] > 100 µM | [12] > 100 µM | [13] > 100 µM | [14] > 100 µM | [15] > 100 µM

O=C(/C=C\c1cccc2ccccc12)c1ccc(F)cc1
inactive: [1] 18.1 µM | [16] 29.7 µM | [2] 15 µM | [3] 16.2 µM | [4] 35.9 µM | [5] 20 µM | [6] 17.8 µM | [7] 20.1 µM | [18] 16.6 µM | [8] 14.8 µM | [19] 4.21 µM | [10] 15 µM | [11] 19.3 µM | [12] 13.2 µM | [13] 17.8 µM | [14] 15.3 µM | [15] 17.6 µM

Cc1ccc(-c2nc3n(c2/C=N\N=C(N)N)CCS3)cc1
inactive: [1] 15.8 µM | [16] 16.8 µM | [2] 15 µM | [5] 15.8 µM | [6] 18 µM | [7] 16.6 µM | [18] 16.3 µM | [8] 15.6 µM | [9] 15 µM | [19] 32.8 µM | [10] 14.9 µM | [11] 12.2 µM | [12] 15.7 µM | [13] 14.2 µM | [14] 19 µM | [15] 16.6 µM

CCc1cccc(C)c1N1C(=O)C(=O)C(c2nc3ccccc3o2)C(=O)C1=O
inactive: [1] > 100 µM | [16] > 100 µM | [2] > 100 µM | [3] > 100 µM | [4] > 100 µM | [5] > 100 µM | [6] > 100 µM | [7] > 100 µM | [18] > 100 µM | [8] > 100 µM | [19] > 100 µM | [10] > 100 µM | [11] > 100 µM | [12] > 100 µM | [13] > 100 µM | [14] > 100 µM | [15] > 100 µM

COC(=O)C1CC2C=CC=CC(=O)C2(C)C1 (stereo unspecified)
inactive: [1] 36.6 µM | [16] 36.2 µM | [2] 45.7 µM | [3] 30.5 µM | [4] 56.4 µM | [5] 44.3 µM | [6] 41.8 µM | [7] 83.2 µM | [18] > 100 µM | [8] 41.1 µM | [19] 22.6 µM | [10] 37.3 µM | [11] 53.6 µM | [13] 51.1 µM | [14] > 100 µM | [15] 38.7 µM

O=c1c(Cl)nsnc1Cl
inactive: [1] 1.7 µM | [2] > 38.7 µM | [3] 5.01 µM | [17] 18.7 µM | [4] 22.9 µM | [5] 23.3 µM | [6] 29.3 µM | [7] 5.15 µM | [18] 20.1 µM | [8] 36.1 µM | [9] 16.2 µM | [19] 1.54 µM | [10] 26.4 µM | [11] 18.4 µM | [12] 18.3 µM | [13] 16.5 µM | [14] 2.57 µM | [15] 10.4 µM

COC(=O)C(=O)C1(CCC(C)=O)c2ccccc2-c2c(C)ccc(C)c21 (stereo unspecified)
inactive: [1] 64 µM | [16] 55.7 µM | [2] 43 µM | [3] 46.8 µM | [4] > 100 µM | [5] 24.7 µM | [6] 33 µM | [7] 68.9 µM | [18] > 100 µM | [8] 34.4 µM | [19] 26.2 µM | [10] 52.2 µM | [11] 81.7 µM | [12] > 100 µM | [13] 25.5 µM | [14] 39.6 µM | [15] 33 µM

COC(=O)C1C2C=CC(C2)N1S(=O)(=O)c1ccccc1 (stereo unspecified)
inactive: [1] > 100 µM | [16] > 100 µM | [2] > 100 µM | [3] > 100 µM | [17] > 100 µM | [5] > 100 µM | [6] > 100 µM | [7] > 100 µM | [18] > 100 µM | [8] > 100 µM | [9] > 100 µM | [19] > 100 µM | [10] > 100 µM | [11] > 100 µM | [12] > 100 µM | [13] > 100 µM | [14] > 100 µM

CC1(C)O[C@@H](CC/C=C/CO)[C@H](CC/C=C/CO)O1
inactive: [1] > 100 µM | [16] > 100 µM | [2] > 100 µM | [3] > 100 µM | [4] > 100 µM | [5] > 100 µM | [6] > 100 µM | [7] > 100 µM | [18] > 100 µM | [8] > 100 µM | [19] > 100 µM | [10] > 100 µM | [11] > 100 µM | [12] > 100 µM | [13] > 100 µM | [14] > 100 µM | [15] > 100 µM

COc1ccc(/C=C2/S/C(=N\c3ccccc3)N(NC(=O)Cc3ccccc3)C2=O)c(OC)c1
inactive: [1] > 100 µM | [16] > 100 µM | [2] > 100 µM | [3] > 100 µM | [17] > 100 µM | [4] > 100 µM | [5] > 100 µM | [6] > 100 µM | [7] > 100 µM | [18] > 100 µM | [8] > 100 µM | [19] > 100 µM | [10] > 100 µM | [11] > 100 µM | [12] > 100 µM | [13] 69.5 µM | [14] > 100 µM | [15] > 100 µM
